# Assay results reported in ChEMBL document CHEMBL1201862, “PubChem BioAssay data set” (2004).
# Calls of active or inactive are those of the source.
# Columns and labels:
# Protein RecA = biological target: T1, Protein RecA (Mycobacterium tuberculosis, UniProt P9WHJ3); assay: Fluorescence Cell-Free Homogeneous Dose Retest to Identify Inhibitors of RecA-Intein Splicing Activity. [Related pubchem assays (depositor defined):AID2097, AID2223, AID489010, AID492950]; format: functional
# T1 sequence (P9WHJ3 whole entry): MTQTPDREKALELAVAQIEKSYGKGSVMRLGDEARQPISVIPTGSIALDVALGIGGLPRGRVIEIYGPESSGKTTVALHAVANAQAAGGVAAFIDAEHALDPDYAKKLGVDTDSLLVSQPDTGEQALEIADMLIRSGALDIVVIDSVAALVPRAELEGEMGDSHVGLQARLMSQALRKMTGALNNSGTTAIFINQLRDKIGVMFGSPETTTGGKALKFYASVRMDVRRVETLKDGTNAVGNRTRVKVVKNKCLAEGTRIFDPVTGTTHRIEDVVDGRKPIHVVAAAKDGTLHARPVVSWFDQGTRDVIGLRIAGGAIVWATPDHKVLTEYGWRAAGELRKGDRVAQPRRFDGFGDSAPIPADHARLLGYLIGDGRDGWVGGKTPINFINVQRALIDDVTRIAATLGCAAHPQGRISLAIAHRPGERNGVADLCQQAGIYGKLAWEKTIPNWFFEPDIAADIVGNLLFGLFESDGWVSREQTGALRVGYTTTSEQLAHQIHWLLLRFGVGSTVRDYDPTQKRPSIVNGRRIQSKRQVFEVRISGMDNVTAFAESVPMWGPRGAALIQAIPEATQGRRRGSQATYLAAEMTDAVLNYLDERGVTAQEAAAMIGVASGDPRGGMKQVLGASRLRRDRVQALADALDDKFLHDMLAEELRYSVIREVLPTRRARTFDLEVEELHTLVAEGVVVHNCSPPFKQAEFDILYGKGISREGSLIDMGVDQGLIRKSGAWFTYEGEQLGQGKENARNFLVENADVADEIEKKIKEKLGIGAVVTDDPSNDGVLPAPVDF
# [1] = biological target: T2, Replicative DNA helicase DnaB (Mycobacterium tuberculosis, UniProt P9WMR3); assay: DnaB intein splicing inhibitors, dose response, biochemical, cell-free fluorescence (AID 449749); format: functional
# T2 sequence (P9WMR3 whole entry): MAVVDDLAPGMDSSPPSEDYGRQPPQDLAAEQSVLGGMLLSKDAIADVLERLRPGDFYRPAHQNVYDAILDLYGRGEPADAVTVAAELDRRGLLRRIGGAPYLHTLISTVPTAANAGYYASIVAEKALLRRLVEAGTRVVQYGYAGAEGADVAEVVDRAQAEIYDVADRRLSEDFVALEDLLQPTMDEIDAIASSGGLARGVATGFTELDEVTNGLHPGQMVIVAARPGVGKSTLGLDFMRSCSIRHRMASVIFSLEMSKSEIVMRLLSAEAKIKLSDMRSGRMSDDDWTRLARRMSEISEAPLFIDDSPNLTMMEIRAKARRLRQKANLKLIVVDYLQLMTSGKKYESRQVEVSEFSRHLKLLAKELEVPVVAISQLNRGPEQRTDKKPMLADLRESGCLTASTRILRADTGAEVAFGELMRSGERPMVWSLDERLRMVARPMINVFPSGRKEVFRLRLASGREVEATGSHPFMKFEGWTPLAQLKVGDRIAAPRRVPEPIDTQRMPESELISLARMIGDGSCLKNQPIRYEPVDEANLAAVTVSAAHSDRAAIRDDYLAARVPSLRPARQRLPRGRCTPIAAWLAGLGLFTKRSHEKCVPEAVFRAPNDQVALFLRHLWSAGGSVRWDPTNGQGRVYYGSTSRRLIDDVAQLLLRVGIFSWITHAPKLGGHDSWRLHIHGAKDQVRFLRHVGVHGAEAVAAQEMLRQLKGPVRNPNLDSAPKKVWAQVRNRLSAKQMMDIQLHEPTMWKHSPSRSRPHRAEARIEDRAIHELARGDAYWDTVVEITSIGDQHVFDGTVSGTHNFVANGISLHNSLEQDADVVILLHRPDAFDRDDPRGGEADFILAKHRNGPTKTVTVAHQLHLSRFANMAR
# [2] = biological target: T3, Microphthalmia-associated transcription factor (Homo sapiens, UniProt O75030); assay: TRPM1 promoter luciferase signal decrease, dose response, MITF inhibitor project, cell-based, SK-MEL-5, cherry-picked, set 3 (AID 493073); format: functional
# T3 sequence (O75030 whole entry): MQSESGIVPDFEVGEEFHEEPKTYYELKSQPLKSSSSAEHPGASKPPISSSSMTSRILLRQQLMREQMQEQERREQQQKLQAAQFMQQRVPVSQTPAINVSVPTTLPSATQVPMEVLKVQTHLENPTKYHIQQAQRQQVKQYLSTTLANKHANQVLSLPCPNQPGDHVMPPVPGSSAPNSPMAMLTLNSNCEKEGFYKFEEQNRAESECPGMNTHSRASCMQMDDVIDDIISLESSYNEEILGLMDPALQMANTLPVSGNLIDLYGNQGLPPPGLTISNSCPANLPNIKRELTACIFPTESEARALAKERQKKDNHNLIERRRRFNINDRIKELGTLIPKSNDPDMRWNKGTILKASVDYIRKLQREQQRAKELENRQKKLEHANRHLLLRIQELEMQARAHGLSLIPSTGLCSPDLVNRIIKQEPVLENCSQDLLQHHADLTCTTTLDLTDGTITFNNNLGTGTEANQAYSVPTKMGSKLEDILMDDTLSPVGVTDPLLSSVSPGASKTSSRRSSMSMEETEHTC
# [3] = biological target: Luciferin 4-monooxygenase (Photinus pyralis, UniProt P08659); assay: firefly luciferase enzyme inhibitors, dose response, biochemical, luminescence (AID 1891)
# Chain of Luciferin 4-monooxygenase (P08659 whole entry): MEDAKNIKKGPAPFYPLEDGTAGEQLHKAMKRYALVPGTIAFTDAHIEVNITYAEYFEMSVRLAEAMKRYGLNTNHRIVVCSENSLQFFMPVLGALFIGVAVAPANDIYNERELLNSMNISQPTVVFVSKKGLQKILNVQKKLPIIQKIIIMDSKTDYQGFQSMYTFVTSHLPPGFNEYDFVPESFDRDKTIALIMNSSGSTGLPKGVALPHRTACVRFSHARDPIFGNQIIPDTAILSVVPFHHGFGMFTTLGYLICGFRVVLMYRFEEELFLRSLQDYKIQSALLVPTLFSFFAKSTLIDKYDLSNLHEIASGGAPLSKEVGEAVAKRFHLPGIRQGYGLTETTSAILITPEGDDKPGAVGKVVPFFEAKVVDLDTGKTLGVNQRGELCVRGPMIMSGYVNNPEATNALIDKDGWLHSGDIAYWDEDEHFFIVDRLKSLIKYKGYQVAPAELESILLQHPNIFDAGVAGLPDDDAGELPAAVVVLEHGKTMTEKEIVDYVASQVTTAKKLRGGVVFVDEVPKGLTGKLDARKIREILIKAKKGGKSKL
# BJ [4] = assay: cells; format: functional, cell-based; conditions: Homo sapiens
# [5] = A549 cell cytotoxicity, dose response, cytotoxicity control, plate reader, cherry-pick, antagonist series (AID 743412); format: functional, cell-based
# BJ [6] = assay: cytotoxicity toward BJ-TERT fibroblasts, dose response, cell-based, RAS-independent, luminescence (AID 1933); format: functional; conditions: Homo sapiens
# [7] = MC4R antagonists, dose response, counter-screen for LGR2 antagonist project, cell-based, plate reader, cherry pick (AID 743444); format: functional;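 also: transfected HEK 293 cells stimulated with alpha-MSH peptide; potency of inhibitors of the alpha-MSH evoked signal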
# [8] = HEK293 cell cytotoxicity, dose response, cytotoxicity control, plate reader, cherry-picked samples (AID 743446); format: functional, cell-based
# [9] = inhibitors of SNCA 5'UTR-driven reporter translation, confirmation, H4 neuroglioma cells, luminescence (AID 1988); format: functional, cell-based
# [10] = LGR2 antagonists, dose response, cell-based, HEK293, CRE-luciferase reporter, cherry pick, set 2 (AID 743343); format: functional;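 also: transfected cells were stimulated with diluted bursicon conditioned medium after compound addition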
# [11] = cytotoxicity toward DRD oncogenic fibroblasts, dose response, cell-based, non-viral oncogenic, luminescence (AID 1934); format: functional; conditions: Homo sapiens
# [12] = Luminescence Cell-Based Dose Response HTS to Identify Inhibitors of 5'UTR Stem-Loop Driven Prion Protein mRNA Translation in H4 Neuroglioblastoma Cells. [Related pubchem assays: 1827 (Project Summary), 1813 (Primary HTS)]; format: functional
# [13] = HepG2 cell cytotoxicity, dose response, cytotoxicity control, plate reader, cherry-pick, antagonist series (AID 743416); format: functional, cell-based
# [14] = Luminescence Cell-Based Dose Confirmation HTS to Identify Inhibitors of Platelet Dense Granule Release. [Related pubchem assays: 1663 (Primary HTS), 1678 (Summary of Project)]; format: functional
# BJ [15] = assay: cytotoxicity toward BJ-TERT-LT-ST fibroblasts, dose response, cell-based, RAS-independent, luminescence (AID 1935); format: functional; conditions: Homo sapiens;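 also: BJ fibroblasts immortalized with TERT plus LT and ST oncogenes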
# [16] = biological target: T4, DNA repair and recombination protein RAD54-like (Homo sapiens, UniProt Q92698); assay: inhibitors of human RAD54 branch migration, confirmation, biochemical, fluorescence, cherry-picked samples, dose series (AID 651657); format: functional
# T4 sequence (Q92698 whole entry): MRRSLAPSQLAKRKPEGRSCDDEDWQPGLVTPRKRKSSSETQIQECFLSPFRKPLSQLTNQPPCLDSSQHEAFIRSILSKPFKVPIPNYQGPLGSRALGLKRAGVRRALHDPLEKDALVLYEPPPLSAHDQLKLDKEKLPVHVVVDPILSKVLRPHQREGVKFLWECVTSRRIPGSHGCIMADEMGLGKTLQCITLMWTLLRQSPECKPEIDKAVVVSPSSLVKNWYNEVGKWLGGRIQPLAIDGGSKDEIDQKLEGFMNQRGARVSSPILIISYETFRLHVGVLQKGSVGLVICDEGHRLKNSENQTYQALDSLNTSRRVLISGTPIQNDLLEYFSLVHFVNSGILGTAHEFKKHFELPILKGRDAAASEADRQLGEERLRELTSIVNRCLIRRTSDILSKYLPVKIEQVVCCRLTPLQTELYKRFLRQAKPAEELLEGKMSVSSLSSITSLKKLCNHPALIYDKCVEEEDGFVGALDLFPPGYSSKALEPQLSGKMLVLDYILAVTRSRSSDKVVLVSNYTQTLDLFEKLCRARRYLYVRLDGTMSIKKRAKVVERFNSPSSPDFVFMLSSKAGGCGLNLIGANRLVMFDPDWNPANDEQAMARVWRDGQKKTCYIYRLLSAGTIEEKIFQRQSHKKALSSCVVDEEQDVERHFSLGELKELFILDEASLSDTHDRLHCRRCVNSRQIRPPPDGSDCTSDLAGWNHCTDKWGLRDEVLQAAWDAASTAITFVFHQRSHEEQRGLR
# [17] = biological target: T5, Sentrin-specific protease 8 (Homo sapiens, UniProt Q96LD8); format: functional
# T5 sequence (Q96LD8 whole entry): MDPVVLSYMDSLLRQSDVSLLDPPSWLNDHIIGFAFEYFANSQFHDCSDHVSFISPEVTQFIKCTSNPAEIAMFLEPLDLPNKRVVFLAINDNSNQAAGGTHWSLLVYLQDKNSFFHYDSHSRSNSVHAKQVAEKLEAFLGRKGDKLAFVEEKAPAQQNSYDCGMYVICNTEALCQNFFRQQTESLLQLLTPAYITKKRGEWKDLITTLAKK
# [18] = biological target: T5, Sentrin-specific protease 8; format: functional; remark: listed apart in the source
# [19] = P. falciparum Dd2 growth inhibitors, dose response, SYBR Green, dry powder samples (AID 1159566); format: functional, cell-based;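 also: potency for growth inhibition with lower SYBR green DNA signal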
# [20] = P. falciparum ATP4 D1247Y mutant growth inhibitors, dose response, NITD609-resistant line, SYBR Green, dry powder (AID 1159571); format: functional, cell-based;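 also: parasites synchronized at ring stage by sorbitol before testing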
# [21] = P. falciparum 3D7-ScDHODH growth inhibitors, dose response, SYBR Green, dry powder samples (AID 1159570); format: functional, cell-based;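 also: parasite growth measured after 72 hours of compound exposure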
# [22] = P. falciparum Dd2 growth inhibitors, dose response, SYBR Green, cherry-picked samples (AID 1159567); format: functional, cell-based
smiles,measurement,setting,value
Cn1c(=O)c([N+](=O)[O-])c(-n2ccnc2)c2ccccc21,EC50,Protein RecA,6.43 µM (active)
same,AC50,[1],6.67 µM (active)
same,AC50,[2],6.6 µM (active)
Cc1cccc(-c2nc3cc(NC(=O)C4CCCO4)ccc3o2)c1 (stereo unspecified),EC50,[3],1.51 µM (active)
same,EC50,BJ [4],19.8 µM (active)
same,AC50,[5],43.3 µM (active)
same,EC50,BJ [6],23.3 µM (active)
same,AC50,[7],6.37 µM (active)
same,AC50,[8],26.9 µM (active)
same,EC50,[9],9.78 µM (active)
same,AC50,[10],9.84 µM (active)
same,EC50,[11],17 µM (active)
same,EC50,[12],9.83 µM (active)
same,AC50,[13],33.8 µM (active)
same,EC50,[14],1.57 µM (active)
same,EC50,BJ [15],> 150 µM (not active)
Cn1c2ccc(F)cc2c2ncn(CCCN(CCO)CCO)c(=O)c21,AC50,[16],28 µM (active)
O=[N+]([O-])c1ccc(C=NN2CCOCC2)s1,IC50,[17],31.9 µM (active)
same,IC50,[18],49 µM (active)
C[C@@H]1CN([C@H](C)CO)C(=O)c2cccc(NC(=O)Nc3ccc(C(F)(F)F)cc3)c2O[C@@H]1CN(C)CC1CCCCC1,AC50,[5],7.8 µM (active)
same,AC50,[7],7.5 µM (active)
same,AC50,[8],14 µM (active)
same,AC50,[10],21.7 µM (active)
same,AC50,[13],9.17 µM (active)
C[C@@H]1CN([C@H](C)CO)C(=O)Cc2cc(NC(=O)CCC(F)(F)F)ccc2O[C@@H]1CN(C)CC1CCCCC1,AC50,[5],47.9 µM (active)
same,AC50,[8],> 52 µM (inactive)
same,AC50,[13],> 52 µM (inactive)
COc1ccc(NC(=O)N(C)C[C@H]2Oc3c(NC(=O)Nc4ccccc4)cccc3C(=O)N([C@@H](C)CO)C[C@H]2C)cc1,AC50,[19],0.167 µM (active)
same,AC50,[20],0.2 µM (active)
same,AC50,[21],0.261 µM (active)
same,AC50,[22],< 0.3 µM (active)
